# According to patent publication US20030199567A1, “Combinations of an alpha-2-delta ligand with a selective inhibitor of cyclooxygenase-2” (priority 2002, published 2003):
# Legend:
# [1] = test system: Experimental Osteoarthritis in Rabbit; test: Induction of Experimental Osteoarthritis in Rabbit (EOA in Rabbit); assay type: in vivo; details: conclusion drawn from the expected study
# Procedure: Induction of Experimental Osteoarthritis in Rabbit (“EOA in Rabbit”)
# Normal rabbits are anaesthetized and anteromedial incisions of the right knees performed. The anterior cruciate ligaments are visualized and sectioned. The wounds are closed and the animals are housed in individual cages, exercised, and fed ad libitum. Rabbits are given either vehicle (water), a combination comprising valdecoxib and gabapentin, or a combination comprising valdecoxib and 3-(1-aminomethyl-cyclohexylmethyl)-4h-[1,2,4]oxadiazol-5-one hydrochloride (10 rabbits per group). […]
# The cartilage changes on the femoral condyles and tibial plateaus are graded separately under a dissecting microscope (Stereozoom, Bausch & Lomb, Rochester, N.Y.). […] The surface area changes are measured and expressed in mm^2. […]
# Representative specimens of synovial membrane from the medial and lateral knee compartments are dissected from underlying tissues. […] The average is calculated and considered as a unit for the whole knee. […]
# Mean values and SEM are calculated and statistical analysis is done using the Mann-Whitney U-test.
# [2] = cited from earlier work
Structure (SMILES),treatment of cartilage damage by the Alpha-2-delta ligand [1],tolerability ([2]; combined analysis of various clinical studies),"overall upper gastrointestinal safety profile (ulcers, perforations, obstructions and GI bleeds) ([2]; versus conventional NSAIDs such as ibuprofen, diclofenac and naproxen)"
"Cl.NCC1(Cc2noc(=O)[nH]2)CCCCC1 [3-(1-aminomethyl-cyclohexylmethyl)-4H-[1,2,4]oxadiazol-5-one hydrochloride]",effective,–,–
NCC1(CC(=O)O)CCCCC1 [gabapentin],effective,–,–
"Cc1onc(-c2ccccc2)c1-c1ccc(S(N)(=O)=O)cc1 [valdecoxib, 4-(5-methyl-3-phenyl-4-isoxazolyl)-benzenesulfonamide]",–,well tolerated,significantly better
